# In patent US8039514B2, “Sulfonamide compounds and use thereof” (Asahi Kasei Pharma Corporation, priority 2008, dated 2011):
# Molecular target: T1, human calcium-sensing receptor (CaSR) (Homo sapiens, UniProt P41180)
# T1 construct: expressed in transfected cells
# T1 sequence (P41180 20-1078): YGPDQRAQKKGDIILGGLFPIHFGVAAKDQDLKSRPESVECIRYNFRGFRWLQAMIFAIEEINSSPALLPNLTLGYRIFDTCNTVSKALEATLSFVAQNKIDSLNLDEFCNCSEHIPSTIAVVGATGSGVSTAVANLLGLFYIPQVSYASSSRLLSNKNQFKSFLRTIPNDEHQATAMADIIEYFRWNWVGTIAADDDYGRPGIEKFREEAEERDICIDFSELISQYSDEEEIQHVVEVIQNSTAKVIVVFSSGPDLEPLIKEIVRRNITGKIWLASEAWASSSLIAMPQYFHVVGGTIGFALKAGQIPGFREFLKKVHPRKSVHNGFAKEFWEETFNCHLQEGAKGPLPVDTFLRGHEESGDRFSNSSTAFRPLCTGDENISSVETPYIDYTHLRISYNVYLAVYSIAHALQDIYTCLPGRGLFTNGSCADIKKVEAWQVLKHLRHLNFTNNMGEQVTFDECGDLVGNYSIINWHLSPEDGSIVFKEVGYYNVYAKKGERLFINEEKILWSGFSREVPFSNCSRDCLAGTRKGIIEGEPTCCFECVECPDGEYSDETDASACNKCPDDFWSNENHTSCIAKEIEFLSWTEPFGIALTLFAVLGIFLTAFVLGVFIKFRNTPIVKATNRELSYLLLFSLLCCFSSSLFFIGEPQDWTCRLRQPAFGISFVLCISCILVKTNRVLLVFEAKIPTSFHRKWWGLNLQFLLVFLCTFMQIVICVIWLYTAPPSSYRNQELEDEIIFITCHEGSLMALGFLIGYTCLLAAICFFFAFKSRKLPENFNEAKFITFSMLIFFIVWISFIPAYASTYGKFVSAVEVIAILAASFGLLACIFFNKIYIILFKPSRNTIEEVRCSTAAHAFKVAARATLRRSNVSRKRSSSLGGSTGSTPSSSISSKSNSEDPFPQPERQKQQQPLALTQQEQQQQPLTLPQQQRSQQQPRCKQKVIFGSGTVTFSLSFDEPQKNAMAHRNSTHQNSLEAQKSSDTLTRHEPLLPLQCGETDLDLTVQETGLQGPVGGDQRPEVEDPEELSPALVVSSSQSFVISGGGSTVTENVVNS
# Experiment: intracellular Ca assay, CaSR antagonist activity in HEK293/hCaSR cells
# Format: cell-based
# Settings: Fura2-AM, inhibition of response to calcium chloride ligand solution, read-out: IC50 values according to the intracellular Ca assay (CaSR antagonist activity)
# Method: HEK293 cells stably expressing human calcium-sensing receptor (CaSR) (termed HEK293/hCaSR cells) were used. HEK293/hCaSR cells were cultured in a culture medium [DMEM medium containing 0.5 mg/mL Geneticin, 50 Unit/mL penicillin, 50 μg/mL streptomycin and 10% fetal bovine serum (FBS), all manufactured by Invitrogen] to semiconfluent in an incubator at 37° C. under 5% carbon dioxide atmosphere.
# Cultured cells were washed with phosphate buffered saline (PBS(−), manufactured by Dainippon Sumitomo Pharmaceutical Company) which had been prewarmed to 37° C., added with PBS(−) containing 10 mM ethylenediamine tetraacetic acid (EDTA), and then incubated in an incubator at 37° C. for 10 minutes. After adding the culture medium to separate the cells, cell suspension was transferred to a centrifuge tube. Cells were collected by centrifuge at 1,500 rpm for 3 minutes, and resuspended in Ca assay buffer [20 mM HEPES buffer (pH 7.4), 115 mM sodium chloride, 5.4 mM potassium chloride, 0.8 mM magnesium chloride, 0.8 mM calcium chloride, 13.8 mM D(+)-glucose (all manufactured by Wako Pure Chemicals) and 0.1% bovine serum albumin (manufactured by SIGMA)] containing 0.2% Pluronic F-127 (manufactured by Molecular Probes) and […] Fura2-AM (manufactured by DOJINDO LABORATORIES) to obtain a cell suspension of 5×10^6 cells/mL. After incubating at 37° C. for 30 minutes, the cells were washed twice with the Ca assay buffer and suspended in the same buffer to obtain a cell suspension of 1×10^6 cells/60 μL. 60 μL of the cell suspension was aliquoted to each well of a 96 well UV microplate (manufactured by Corning Co.) to give a cell plate.
# The test compound was diluted with the Ca assay buffer to five times the final concentration and then 80 μL of the diluted compound was applied to each well of a 96 well round bottomed microplate (manufactured by Corning Co.) to give a sample plate. 80 μL of the Ca assay buffer containing 7.5 mM calcium chloride (i.e., ligand solution) was applied to each well of a 96 well round bottomed microplate to give a ligand plate. Then, thus prepared sample plate, ligand plate, and the cell plate were placed in Functional Drug Screening System (FDSS) 4000 (manufactured by Hamamatsu Photonics K.K.) which had been preswitched on and prewarmed to 37° C. Measurements were then carried out as follows. After incubating the cell plate for 180 seconds, fluorescence intensity was measured every two seconds (excitation wavelength; 340 nm and 380 nm, measurement wavelength; 500 nm). After the measurement for 40 seconds, 20 μL of the test compound solution from the sample plate was added to the cell plate, followed by continuous measurement for 160 seconds. Then, 20 μL of the ligand solution from the ligand plate was added to the cell plate, followed by continuous measurement for 100 seconds.
# Amount of change in intracellular Ca concentration is indicated as a peak height of the ratio of the fluorescence intensity with excitation of 340 nm and 380 nm (i.e., fluorescence intensity with excitation at 340 nm/fluorescence intensity with excitation at 380 nm) that is obtained from the difference between the maximum ratio after adding the ligand solution and the ratio before adding the ligand solution. Further, when the peak height obtained from the Ca assay buffer containing no test compound has inhibition ratio of 0% while the peak height obtained from the Ca assay buffer containing no calcium chloride as a ligand solution has inhibition ratio of 100%, inhibition ratio for each test compound (i.e., CaSR antagonist activity) was calculated.
row,IC50,Structure (SMILES)
1,0.3 to 1 µM,"CN(C[C@H](O)CNC(C)(C)Cc1ccc2ccccc2c1)S(=O)(=O)c1ccccc1-c1cccc(C=CC(=O)O)c1 [Exp. 3-1, (R)-3-(2′-(N-(2-hydroxy-3-(2-methyl-1-(naphthalen-2-yl)propan-2-ylamino)propyl)-N-methylsulfamoyl)biphenyl-3-yl)acrylic acid]"
2,≤ 0.3 µM,"CN(C[C@H](O)CNC(C)(C)Cc1ccc2ccccc2c1)S(=O)(=O)c1cccc(-c2cccc(C(=O)O)c2)c1 [Exp. 3-5, (R)-3′-(N-(2-hydroxy-3-(2-methyl-1-(naphthalen-2-yl)propan-2-ylamino)propyl)-N-methylsulfamoyl)biphenyl-3-carboxylic acid]"
3,0.3 to 1 µM,"CN(C[C@H](O)CNC(C)(C)Cc1ccc2ccccc2c1)S(=O)(=O)c1cccc(-c2ccc(C(=O)O)cc2)c1 [Exp. 3-6, (R)-3′-(N-(2-hydroxy-3-(2-methyl-1-(naphthalen-2-yl)propan-2-ylamino)propyl)-N-methylsulfamoyl)biphenyl-4-carboxylic acid]"
4,0.3 to 1 µM,"Cc1ccc(-c2cccc(S(=O)(=O)N(C)C[C@H](O)CNC(C)(C)Cc3ccc4ccccc4c3)c2)cc1C(=O)O [Exp. 3-7, (R)-3′-(N-(2-hydroxy-3-(2-methyl-1-(naphthalen-2-yl)propan-2-ylamino)propyl)-N-methylsulfamoyl)-4-methylbiphenyl-3-carboxylic acid]"
5,≤ 0.3 µM,"Cc1cc(-c2cccc(S(=O)(=O)N(C)C[C@H](O)CNC(C)(C)Cc3ccc4ccccc4c3)c2)ccc1C(=O)O [Exp. 3-8, (R)-3′-(N-(2-hydroxy-3-(2-methyl-1-(naphthalen-2-yl)propan-2-ylamino)propyl)-N-methylsulfamoyl)-3-methylbiphenyl-4-carboxylic acid]"
6,0.3 to 1 µM,"CN(C[C@H](O)CNC(C)(C)Cc1ccc2ccccc2c1)S(=O)(=O)c1cccc(-c2ccc(C(=O)O)c(F)c2)c1 [Exp. 3-9, (R)-3-fluoro-3′-(N-(2-hydroxy-3-(2-methyl-1-(naphthalen-2-yl)propan-2-ylamino)propyl)-N-methylsulfamoyl)biphenyl-4-carboxylic acid]"
7,≤ 0.3 µM,"CN(C[C@H](O)CNC(C)(C)Cc1ccc2ccccc2c1)S(=O)(=O)c1cccc(-c2ccc(C(=O)O)c(N)c2)c1 [Exp. 3-10, (R)-3-amino-3′-(N-(2-hydroxy-3-(2-methyl-1-(naphthalen-2-yl)propan-2-ylamino)propyl)-N-methylsulfamoyl)biphenyl-4-carboxylic acid]"
8,0.3 to 1 µM,"CN(C[C@H](O)CNC(C)(C)Cc1ccc2ccccc2c1)S(=O)(=O)c1cccc(-c2ccc(C(=O)O)c(Cl)c2)c1 [Exp. 3-11, (R)-3-chloro-3′-(N-(2-hydroxy-3-(2-methyl-1-(naphthalen-2-yl)propan-2-ylamino)propyl)-N-methylsulfamoyl)biphenyl-4-carboxylic acid]"
9,0.3 to 1 µM,"CN(C[C@H](O)CNC(C)(C)Cc1ccc2ccccc2c1)S(=O)(=O)c1cccc(-c2ccc(C(=O)O)cc2F)c1 [Exp. 3-12, (R)-2-fluoro-3′-(N-(2-hydroxy-3-(2-methyl-1-(naphthalen-2-yl)propan-2-ylamino)propyl)-N-methylsulfamoyl)biphenyl-4-carboxylic acid]"
10,1 to 3 µM,"CN(C[C@H](O)CNC(C)(C)Cc1ccc2ccccc2c1)S(=O)(=O)c1cccc(-c2cc3c(c(C(=O)O)c2)OCC3)c1 [Exp. 3-13, (R)-5-(3-(N-(2-hydroxy-3-(2-methyl-1-(naphthalen-2-yl)propan-2-ylamino)propyl)-N-methylsulfamoyl)phenyl)-2,3-dihydrobenzofuran-7-carboxylic acid]"
11,0.3 to 1 µM,"CN(C[C@H](O)CNC(C)(C)Cc1ccc2ccccc2c1)S(=O)(=O)c1cccc(-c2ccc(C=CC(=O)O)cc2)c1 [Exp. 3-14, (R)-3-(3′-(N-(2-hydroxy-3-(2-methyl-1-(naphthalen-2-yl)propan-2-ylamino)propyl)-N-methylsulfamoyl)biphenyl-4-yl)acrylic acid]"
12,0.3 to 1 µM,"CN(C[C@H](O)CNC(C)(C)Cc1ccc2ccccc2c1)S(=O)(=O)c1cccc(-c2ccc(CCC(=O)O)cc2)c1 [Exp. 3-15, (R)-3-(3′-(N-(2-hydroxy-3-(2-methyl-1-(naphthalen-2-yl)propan-2-ylamino)propyl)-N-methylsulfamoyl)biphenyl-4-yl)propionic acid]"
13,1 to 3 µM,"CN(C[C@H](O)CNC(C)(C)Cc1ccc2ccccc2c1)S(=O)(=O)c1cccc(-c2cccc(C=CC(=O)O)c2)c1 [Exp. 3-16, (R)-3-(3′-(N-(2-hydroxy-3-(2-methyl-1-(naphthalen-2-yl)propan-2-ylamino)propyl)-N-methylsulfamoyl)biphenyl-3-yl)acrylic acid]"
14,0.3 to 1 µM,"CN(C[C@H](O)CNC(C)(C)Cc1ccc2ccccc2c1)S(=O)(=O)c1cccc(-c2cc(N)cc(C(=O)O)c2)c1 [Exp. 3-17, (R)-5-amino-3′-(N-(2-hydroxy-3-(2-methyl-1-(naphthalen-2-yl)propan-2-ylamino)propyl)-N-methylsulfamoyl)biphenyl-3-carboxylic acid]"
15,1 to 3 µM,"CN(C[C@H](O)CNC(C)(C)Cc1ccc2ccccc2c1)S(=O)(=O)c1cccc(-c2cc(C(=O)O)cc([N+](=O)[O-])c2)c1 [Exp. 3-18, (R)-3′-(N-(2-hydroxy-3-(2-methyl-1-(naphthalen-2-yl)propan-2-ylamino)propyl)-N-methylsulfamoyl)-5-nitrobiphenyl-3-carboxylic acid]"
16,0.3 to 1 µM,"CN(C[C@H](O)CNC(C)(C)Cc1ccc2ccccc2c1)S(=O)(=O)c1cccc(-c2ccc(C(=O)O)cc2N)c1 [Exp. 3-19, (R)-2-amino-3′-(N-(2-hydroxy-3-(2-methyl-1-(naphthalen-2-yl)propan-2-ylamino)propyl)-N-methylsulfamoyl)biphenyl-4-carboxylic acid]"
17,1 to 3 µM,"CN(C[C@H](O)CNC(C)(C)Cc1ccc2ccccc2c1)S(=O)(=O)c1cccc(-c2ccc(C(=O)O)cc2[N+](=O)[O-])c1 [Exp. 3-20, (R)-3′-(N-(2-hydroxy-3-(2-methyl-1-(naphthalen-2-yl)propan-2-ylamino)propyl)-N-methylsulfamoyl)-2-nitrobiphenyl-4-carboxylic acid]"
